Measured values reported in patent publication US10849982B2, “C3-carbon linked glutarimide degronimers for target protein degradation” (C4 Therapeutics, Inc., priority 2016, dated 2020).
Where a name gives a salt, the structure may show the parent alone.

Key:
CRBN-DDB1 = CRBN-DDB1 (Homo sapiens (Human), UniProt Q96SW2); assay: CRBN-DDB1 fluorescence polarization (FP) binding assay; conditions: displacement of Thalidomide-Alexa Fluor or Pomalidomide-fluorescein probe
Experimental: Measuring compound ligand binding to CRBN-DDB1 was carried out using an established sensitive and quantitative in vitro fluorescence polarization (FP) based binding assay. […] Compounds were dispensed from serially diluted DMSO stock into black 384-well compatible fluorescence polarization plates using an Echo acoustic dispenser. Compound binding to CRBN-DDB1 was measured by displacement of either a (−)-Thalidomide-Alexa Fluor® or Pomalidomide-fluorescein conjugated probe dye. […] Matching control wells excluding CRBN-DDB1 were used to correct for background fluorescence. Plates were read on an Envision plate reader with appropriate FP filter sets. The corrected S (perpendicular) and P (parallel) values were used to calculate fluorescence polarization (FP) with the following equation: FP=1000*(S−G*P)/(S+G*P).

BRD4 BD1 = BRD4 BD1 (Homo sapiens (Human), UniProt O60885); assay: HiBit assay, BRD4 BD1 degradation analysis; format: cell-based; conditions: BRD4_BD1, 293T.29 cells, 3 hr
Experimental: DMEM no-phenol red medium and fetal bovine serum (FBS) were purchased from Gibco (Grand Island, N.Y., USA). Nano-Glo® HiBiT Lytic Assay System was purchased from Promega (Medison, Wis., USA). 293T.29 (HiBiT-BRD4 BD1) cell line was generated in house, ectopically expressing BRD4 BD1 domain with HiBiT fusion tag. Cell culture flasks and 384-well microplates were acquired from VWR (Radnor, Pa., USA).
BRD4 BD1 degradation was determined based on quantification of luminescent signal using Nano-Glo® HiBiT Lytic Assay kit. Test compounds were added to the 384-well plate from a top concentration of 1 μM with 11 points, half log titration in quadruplicates. 293T.29 cells were added into 384-well plates at a cell density of 15000 cells per well. The plates were kept at 37° C. with 5% CO2 for 3 hours. The cells treated in the absence of the test compound were the negative control and the cells treated with 30 nM of a known BRD4 degrader were the positive control. After 3-hour incubation, Nano-Glo® HiBiT Lytic Assay reagents were added to the cells. Luminescence was acquired on EnVision™ Multilabel Reader (PerkinElmer, Santa Clara, Calif., USA).

[1] = tested on: MOLT4.2 (CRBN Knock Out) cell line; assay: Cell viability analysis (CellTiter-Glo 2.0), MOLT4.2; format: cell-based; conditions: MOLT4.2, 72 hr
Experimental: (§1) CellTiter-Glo® 2.0 Assay was purchased from Promega (Medison, Wis., USA). MOLT4.1 (WT) cell line was purchased from ATCC (Manassas, Va., USA) and MOLT4.2 (CRBN Knock Out) cell line was generated in house. Cell culture flasks and 384-well microplates were acquired from VWR (Radnor, Pa., USA).
(§2) MOLT4.1 and MOLT4.2 cell viability was determined based on quantification of ATP using CellTiter-Glo® 2.0 luminescent Assay kit, which signals the presence of metabolically-active cells. Briefly, MOLT4.1 and MOLT4.2 cells were seeded into 384-well plates at a cell density of 750 cells per well, the plates were kept at 37° C. with 5% CO2 overnight. On the following day, test compounds were added to the cells from a top concentration of 1 μM with 10 points, half log titration in duplicates. The cells treated in the absence of the test compound were the negative control and the cells treated in the absence of CellTiter-Glo® 2.0 were the positive control. At the same day of compound treatment, CellTiter-Glo® 2.0 was added to a plate with cells treated in the absence of the test compound to establish Cytostatic control value (Cro). Cells treated with the test compound were incubated for 72 hr. CellTiter-Glo reagent was then added to the cells and Luminescence was acquired on EnVision™ Multilabel Reader (PerkinElmer, Santa Clara, Calif., USA).
(§3) MOLT4.1 and MOLT4.2 cell viability was determined based on quantification of ATP using CellTiter-Glo® 2.0 luminescent Assay kit, which signals the presence of metabolically-active cells. Briefly, MOLT4.1 and MOLT4.2 cells were seeded into 384-well plates at a cell density of 750 cells per well, the plates were kept at 37° C. with 5% CO2 overnight. On the following day, test compounds were added to the cells from a top concentration of 1 μM with 10 points, half log titration in duplicates. […] CellTiter-Glo reagent was then added to the cells and Luminescence was acquired on EnVision™ Multilabel Reader (PerkinElmer, Santa Clara, Calif., USA).

MOLT4.1 (WT) cell line = assay: Cell viability analysis (CellTiter-Glo 2.0), MOLT4.1; format: cell-based; conditions: MOLT4.1, 72 hr
Experimental: as §1, §2, §3

CRBN-DDB1, sequence (Q96SW2 whole entry): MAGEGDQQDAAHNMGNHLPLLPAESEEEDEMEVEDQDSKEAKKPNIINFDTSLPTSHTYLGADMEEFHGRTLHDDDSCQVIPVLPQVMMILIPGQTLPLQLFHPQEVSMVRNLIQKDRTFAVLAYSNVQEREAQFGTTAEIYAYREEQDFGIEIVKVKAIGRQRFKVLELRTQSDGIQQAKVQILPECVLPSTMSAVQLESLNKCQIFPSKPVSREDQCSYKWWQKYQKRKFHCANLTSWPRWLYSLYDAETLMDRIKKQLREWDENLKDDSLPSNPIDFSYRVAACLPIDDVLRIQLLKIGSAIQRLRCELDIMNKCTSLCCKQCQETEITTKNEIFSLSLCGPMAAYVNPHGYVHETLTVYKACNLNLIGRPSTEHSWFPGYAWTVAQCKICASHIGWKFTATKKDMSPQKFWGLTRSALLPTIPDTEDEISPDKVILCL
CRBN-DDB1, sequence (Q16531 whole entry partner): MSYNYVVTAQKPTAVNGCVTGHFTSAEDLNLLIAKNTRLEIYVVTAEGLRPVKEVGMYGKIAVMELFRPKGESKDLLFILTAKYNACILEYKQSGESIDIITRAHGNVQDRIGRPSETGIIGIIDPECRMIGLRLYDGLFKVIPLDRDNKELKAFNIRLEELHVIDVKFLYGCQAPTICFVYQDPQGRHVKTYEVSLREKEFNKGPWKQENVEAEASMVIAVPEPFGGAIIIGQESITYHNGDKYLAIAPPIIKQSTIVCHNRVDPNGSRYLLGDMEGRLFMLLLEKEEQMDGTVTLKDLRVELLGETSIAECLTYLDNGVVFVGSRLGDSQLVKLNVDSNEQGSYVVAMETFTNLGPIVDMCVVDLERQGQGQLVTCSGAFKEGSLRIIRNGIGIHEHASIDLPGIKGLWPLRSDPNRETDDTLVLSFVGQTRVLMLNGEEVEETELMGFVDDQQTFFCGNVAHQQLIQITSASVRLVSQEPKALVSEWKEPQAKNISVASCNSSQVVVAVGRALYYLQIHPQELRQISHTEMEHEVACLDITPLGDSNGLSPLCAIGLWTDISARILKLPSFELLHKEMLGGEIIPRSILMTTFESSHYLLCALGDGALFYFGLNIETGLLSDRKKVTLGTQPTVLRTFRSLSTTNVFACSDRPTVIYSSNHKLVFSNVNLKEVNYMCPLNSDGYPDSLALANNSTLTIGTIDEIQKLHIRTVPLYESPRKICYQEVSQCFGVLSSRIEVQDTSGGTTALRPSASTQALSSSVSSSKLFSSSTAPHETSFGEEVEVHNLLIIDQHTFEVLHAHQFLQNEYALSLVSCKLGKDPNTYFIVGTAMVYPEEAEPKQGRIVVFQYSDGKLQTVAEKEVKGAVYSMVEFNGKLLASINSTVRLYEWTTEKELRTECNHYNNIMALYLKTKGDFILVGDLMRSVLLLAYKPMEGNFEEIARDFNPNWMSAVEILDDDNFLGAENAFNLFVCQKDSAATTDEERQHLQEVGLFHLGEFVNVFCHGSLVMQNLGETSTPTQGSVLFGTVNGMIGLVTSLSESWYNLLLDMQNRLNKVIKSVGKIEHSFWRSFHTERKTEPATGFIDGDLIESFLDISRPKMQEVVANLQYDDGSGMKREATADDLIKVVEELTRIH

Kd (CRBN-DDB1) [µM]	SMILES	also measured
10 to 50	O=C1CCC(Cc2ccccc2)C(=O)N1 (centres unmarked) [Compound 50, 3-benzylpiperidine-2,6-dione]	–
50 to 100	Cn1nc(C2CCC(=O)NC2=O)c2ccc(N)cc21 (centres unmarked) [Compound 51, 3-(6-amino-1-methyl-indazol-3-yl)piperidine-2,6-dione]	–
< 10	Cn1nc(C2CCC(=O)NC2=O)c2ccc(NC3CCN(C(=O)OC(C)(C)C)CC3)cc21 (centres unmarked) [Compound 52, tert-Butyl 4-((3-(2,6-dioxopiperidin-3-yl)-1-methyl-1H-indazol-6-yl)amino)piperidine-1-carboxylate]	–
< 10	Cn1nc(C2CCC(=O)NC2=O)c2ccc(NC3CCNCC3)cc21 (centres unmarked) [Compound 53, 3-(1-Methyl-6-(piperidin-4-ylamino)-1H-indazol-3-yl)piperidine-2,6-dione hydrochloride]	–
10 to 50	CC(C)(C)OC(=O)N1Cc2ccc(C3CCC(=O)NC3=O)cc2C1 (centres unmarked) [Compound 54, 5-(2,6-Dioxo-piperidin-3-yl)-1,3-dihydro-isoindole-2-carboxylic acid tert-butyl ester]	–
50 to 100	O=C1CCC(c2ccc3c(c2)CNC3)C(=O)N1 (centres unmarked) [Compound 55, 3-(Isoindolin-5-yl)piperidine-2,6-dione hydrochloride]	–
10 to 50	O=C1CCC(c2nccc3ccccc23)C(=O)N1 (centres unmarked) [Compound 58, 3-(Isoquinolin-1-yl)piperidine-2,6-dione]	–
50 to 100	Cn1cccc(C2CCC(=O)NC2=O)c1=O (centres unmarked) [Compound 59, 3-(1-methyl-2-oxo-1,2-dihydropyridin-3-yl)piperidine-2,6-dione]	–
10 to 50	O=C1CCC(O)(C(=O)OCc2ccccc2)C(=O)N1 (centres unmarked) [Compound 60, benzyl 3-hydroxy-2,6-dioxopiperidine-3-carboxylate]	–
< 10	Cc1nc(C2CCC(=O)NC2=O)n2ccccc12 (centres unmarked) [Compound 61, 3-(1-methylimidazo[1,5-a]pyridin-3-yl)piperidine-2,6-dione]	–
50 to 100	Cn1c(C2CCC(=O)NC2=O)nc2ccccc21 (centres unmarked) [Compound 62, 3-(1-methyl-1H-benzo[d]imidazol-2-yl)piperidine-2,6-dione]	–
10 to 50	O=C1CCC(c2cn(-c3ccccc3)cn2)C(=O)N1 (centres unmarked) [Compound 64, 3-(1-phenyl-1H-imidazol-4-yl)piperidine-2,6-dione]	–
–	Cc1sc2c(c1C)C(c1ccc(Cl)cc1)=N[C@@H](CC(=O)NCCCCCCCC(=O)Nc1ccc3c(C4CCC(=O)NC4=O)nn(C)c3c1)c1nnc(C)n1-2 (stereo partly drawn) [Degronimer 1, 8-(2-((S)-4-(4-chlorophenyl)-2,3,9-trimethyl-6H-thieno[3,2-f][1,2,4]triazolo[4,3-a][1,4]diazepin-6-yl)acetamido)-N-(3-(2,6-dioxopiperidin-3-yl)-1-methyl-1H-indazol-6-yl)octanamide]	DC50 (BRD4 BD1): > 0.83 µM; Kd (CRBN-DDB1; Table 2): < 10 µM; Emax [1]: > 50%; GI50 [1]: > 1 µM; LD50 (nM) [1]: + (>1 μM = +); Emax (MOLT4.1 (WT) cell line): 0 to 50%; GI50 (MOLT4.1 (WT) cell line): 0.1 to 1 µM; LD50 (nM) (MOLT4.1 (WT) cell line): + (>1 μM = +)
